Experimental data as given in US20050163814A1, “Granulated phosphoroamido(di) thioates” (priority 2002, published 2005).
Where “and” joins values, the source holds several entries; their conditions need not be identical. Equal entries are not always repeated. Marks after values point to notes of the source that are not given here.

Legend:
Assay type in all cases: physicochemical
[1] = GE Brightness of acephate powder; settings: bulk powder, reflected light
Description: A sample of technical grade acephate crystals was obtained (Examples 1 and 3) and compared. […] Half of each sample was analyzed for brightness and particle size distribution.
Milling caused a measurable increase in the brightness of the bulk powder sample as measured by reflected light. Such an increase is visually apparent as a noticeably brighter powder when compared side-by-side under the GE Brightness test.

[2] = Particle size distribution (sieve openings) of acephate technical
Description: The other half of the Source B sample was analyzed for particle size distribution as received and with the milling according to the invention. FIG. 1 (unmilled) and FIG. 2 (milled) are graphs of the particle size distributions from the milling process. All values are in terms of weight percent of total sample that could pass through the designated sieve opening.

[3] = Crystal dimensions by visual inspection; settings: for Crystal dimensions: length / Crystal dimensions: width: Table 4; for Aspect ratio: length:width; for average crystal length / average width: visual inspection
From the text: The unmilled acephate from example 3 was a commercially available technical grade having elongated cylindrical shaped crystals with an average crystal length of 250-500 μm and an average width of 40-100 μm. In contrast, the acephate powder of example 4 was made of substantially cylindrical shaped crystals with an average crystal length of less than about 150 μm and an average width of less than 40 μm.

[4] = up to Sieve Size >177 μm, subject to rounding

COP(=O)(NC(C)=O)SC (stereo not shown) [Ex. 1, acephate, reference compound]
GE Brightness [1]: 87.2

COP(=O)(NC(C)=O)SC (stereo not shown) [Ex. 2, acephate]
GE Brightness [1]: 88.4

COP(=O)(NC(C)=O)SC (stereo not shown) [Ex. 3, acephate, reference compound]
Summary Particle Size Distribution, Range ([2]; Sieve Size 2.3-3.9 μm, listed as Unmilled): 14.55 wt %
Summary Particle Size Distribution, Range ([2]; Sieve Size 4.6-16 μm, listed as Unmilled): 33.43 wt %
Summary Particle Size Distribution, Range ([2]; Sieve Size 4.6-37 μm, listed as Unmilled): 50.51 wt %
Summary Particle Size Distribution, Range ([2]; Sieve Size 4.6-88 μm, listed as Unmilled): 65.44 wt %
Summary Particle Size Distribution, Range ([2]; Sieve Size 19-37 μm, listed as Unmilled): 17.08 wt %
Summary Particle Size Distribution, Range ([2]; Sieve Size 44-88 μm, listed as Unmilled): 14.93 wt %
Summary Particle Size Distribution, Range ([2]; Sieve Size 105-149 μm, listed as Unmilled): 4.97 wt %
Summary Particle Size Distribution, Range ([2]; Sieve Size <1.9 μm, listed as Unmilled): 13.27 wt %
Summary Particle Size Distribution, Range ([2]; Sieve Size <3.9 μm, listed as Unmilled): 27.83 wt %
Summary Particle Size Distribution, Range ([2]; Sieve Size >105 μm, listed as Unmilled): 6.73 wt %
Summary Particle Size Distribution, Range ([2]; Sieve Size >177 μm, listed as Unmilled): 1.76 wt %
Particle Size Distribution ([2]; Size 1.9 μm, listed as Unmilled): 3.6123 weight percent
Particle Size Distribution ([2]; Size 2.3 μm, listed as Unmilled): 1.6125 weight percent
Particle Size Distribution ([2]; Size 2.8 μm, listed as Unmilled): 3.3402 weight percent
Particle Size Distribution ([2]; Size 3.3 μm, listed as Unmilled): 5.0469 weight percent
Particle Size Distribution ([2]; Size 3.9 μm, listed as Unmilled): 4.5533 weight percent
Particle Size Distribution ([2]; Size 4.6 μm, listed as Unmilled): 2.9044 weight percent
Particle Size Distribution ([2]; Size 5.5 μm, listed as Unmilled): 3.2481 weight percent
Particle Size Distribution ([2]; Size 6.5 μm, listed as Unmilled): 5.7966 weight percent
Particle Size Distribution ([2]; Size 7.8 μm, listed as Unmilled): 4.6403 weight percent
Particle Size Distribution ([2]; Size 9.2 μm, listed as Unmilled): 4.2474 weight percent
Particle Size Distribution ([2]; Size 11 μm, listed as Unmilled): 4.6232 weight percent
Particle Size Distribution ([2]; Size 13 μm, listed as Unmilled): 4.6531 weight percent
Particle Size Distribution ([2]; Size 16 μm, listed as Unmilled): 3.3203 weight percent
Particle Size Distribution ([2]; Size 19 μm, listed as Unmilled): 3.2150 weight percent
Particle Size Distribution ([2]; Size 22 μm, listed as Unmilled): 3.1651 weight percent
Particle Size Distribution ([2]; Size 26 μm, listed as Unmilled): 3.7619 weight percent
Particle Size Distribution ([2]; Size 31 μm, listed as Unmilled): 3.7231 weight percent
Particle Size Distribution ([2]; Size 37 μm, listed as Unmilled): 3.2123 weight percent
Particle Size Distribution ([2]; Size 44 μm, listed as Unmilled): 3.0323 weight percent
Particle Size Distribution ([2]; Size 53 μm, listed as Unmilled): 3.3767 weight percent
Particle Size Distribution ([2]; Size 63 μm, listed as Unmilled): 3.2501 weight percent
Particle Size Distribution ([2]; Size 75 μm, listed as Unmilled): 2.8069 weight percent
Particle Size Distribution ([2]; Size 88 μm, listed as Unmilled): 2.4665 weight percent
Particle Size Distribution ([2]; Size 105 μm, listed as Unmilled): 2.0819 weight percent
Particle Size Distribution ([2]; Size 125 μm, listed as Unmilled): 1.5293 weight percent
Particle Size Distribution ([2]; Size 149 μm, listed as Unmilled): 1.3606 weight percent
Particle Size Distribution ([2]; Size 177 μm, listed as Unmilled): 0.7768 weight percent
Particle Size Distribution ([2]; Size 210 μm, listed as Unmilled): 0.4565 weight percent
Particle Size Distribution ([2]; Size 250 μm, listed as Unmilled): 0.2321 weight percent
Particle Size Distribution ([2]; Size 298 μm, listed as Unmilled): 0.1849 weight percent
Particle Size Distribution ([2]; Size <1.9 μm, listed as Unmilled): 9.6625 weight percent
Particle Size Distribution ([2]; Size >298 μm, listed as Unmilled): 0.1068 weight percent
mean particle size ([2]; listed as Unmilled): 30.4 μm
median particle size ([2]; listed as Unmilled): 11.7 μm
Summary Particle Size Distribution, Cumul. ([2]; up to Sieve Size 2.3-3.9 μm, listed as Unmilled): 27.83 wt %
Summary Particle Size Distribution, Cumul. ([2]; up to Sieve Size 4.6-16 μm, listed as Unmilled): 61.26 wt %
Summary Particle Size Distribution, Cumul. ([2]; up to Sieve Size 19-37 μm, listed as Unmilled): 78.34 wt %
Summary Particle Size Distribution, Cumul. ([2]; up to Sieve Size 44-88 μm, listed as Unmilled): 93.27 wt %
Summary Particle Size Distribution, Cumul. ([2]; up to Sieve Size 105-149 μm, listed as Unmilled): 98.24 wt %
Summary Particle Size Distribution, Cumul. ([2]; up to Sieve Size <1.9 μm, listed as Unmilled): 13.27 wt %
Summary Particle Size Distribution, Cumul. [2, 4]: ˜100* wt %
Crystal dimensions: length ([3]; listed as Unmilled): 100-280 μm
Crystal dimensions: width ([3]; listed as Unmilled): 40-50 μm
Aspect ratio ([3]; listed as Unmilled): 2.5-5.6
average crystal length [3]: 250-500 μm
average width [3]: 40-100 μm
GE Brightness [1]: 90.2

COP(=O)(NC(C)=O)SC (stereo not shown) [Ex. 4, acephate]
Summary Particle Size Distribution, Range ([2]; Sieve Size 2.3-3.9 μm, listed as Milled): 15.26 wt %
Summary Particle Size Distribution, Range ([2]; Sieve Size 4.6-16 μm, listed as Milled): 41.93 wt %
Summary Particle Size Distribution, Range ([2]; Sieve Size 4.6-37 μm, listed as Milled): 62.09 wt %
Summary Particle Size Distribution, Range ([2]; Sieve Size 4.6-88 μm, listed as Milled): 71.47 wt %
Summary Particle Size Distribution, Range ([2]; Sieve Size 19-37 μm, listed as Milled): 20.16 wt %
Summary Particle Size Distribution, Range ([2]; Sieve Size 44-88 μm, listed as Milled): 9.39 wt %
Summary Particle Size Distribution, Range ([2]; Sieve Size 105-149 μm, listed as Milled): 1.38 wt %
Summary Particle Size Distribution, Range ([2]; Sieve Size <1.9 μm, listed as Milled): 11.73 wt %
Summary Particle Size Distribution, Range ([2]; Sieve Size <3.9 μm, listed as Milled): 26.99 wt %
Summary Particle Size Distribution, Range ([2]; Sieve Size >105 μm, listed as Milled): 1.54 wt % and 1.68 wt %
Summary Particle Size Distribution, Range ([2]; Sieve Size >177 μm, listed as Milled): 0.30 wt %
Particle Size Distribution ([2]; Size 1.9 μm, listed as Milled): 3.7746 weight percent
Particle Size Distribution ([2]; Size 2.3 μm, listed as Milled): 1.8957 weight percent
Particle Size Distribution ([2]; Size 2.8 μm, listed as Milled): 3.9085 weight percent
Particle Size Distribution ([2]; Size 3.3 μm, listed as Milled): 4.3981 weight percent
Particle Size Distribution ([2]; Size 3.9 μm, listed as Milled): 5.0539 weight percent
Particle Size Distribution ([2]; Size 4.6 μm, listed as Milled): 4.0079 weight percent
Particle Size Distribution ([2]; Size 5.5 μm, listed as Milled): 4.6002 weight percent
Particle Size Distribution ([2]; Size 6.5 μm, listed as Milled): 5.3931 weight percent
Particle Size Distribution ([2]; Size 7.8 μm, listed as Milled): 5.6669 weight percent
Particle Size Distribution ([2]; Size 9.2 μm, listed as Milled): 6.1254 weight percent
Particle Size Distribution ([2]; Size 11 μm, listed as Milled): 6.0030 weight percent
Particle Size Distribution ([2]; Size 13 μm, listed as Milled): 5.4418 weight percent
Particle Size Distribution ([2]; Size 16 μm, listed as Milled): 4.6925 weight percent
Particle Size Distribution ([2]; Size 19 μm, listed as Milled): 4.8575 weight percent
Particle Size Distribution ([2]; Size 22 μm, listed as Milled): 4.9085 weight percent
Particle Size Distribution ([2]; Size 26 μm, listed as Milled): 4.4529 weight percent
Particle Size Distribution ([2]; Size 31 μm, listed as Milled): 3.4498 weight percent
Particle Size Distribution ([2]; Size 37 μm, listed as Milled): 2.4873 weight percent
Particle Size Distribution ([2]; Size 44 μm, listed as Milled): 2.0818 weight percent
Particle Size Distribution ([2]; Size 53 μm, listed as Milled): 2.3280 weight percent
Particle Size Distribution ([2]; Size 63 μm, listed as Milled): 2.2067 weight percent
Particle Size Distribution ([2]; Size 75 μm, listed as Milled): 1.5439 weight percent
Particle Size Distribution ([2]; Size 88 μm, listed as Milled): 1.2313 weight percent
Particle Size Distribution ([2]; Size 105 μm, listed as Milled): 0.8371 weight percent
Particle Size Distribution ([2]; Size 125 μm, listed as Milled): 0.4144 weight percent
Particle Size Distribution ([2]; Size 149 μm, listed as Milled): 0.1331 weight percent
Particle Size Distribution ([2]; Size 177 μm, listed as Milled): 0.1199 weight percent
Particle Size Distribution ([2]; Size 210 μm, listed as Milled): 0.0486 weight percent
Particle Size Distribution ([2]; Size 250 μm, listed as Milled): 0.132 weight percent
Particle Size Distribution ([2]; Size 298 μm, listed as Milled): 0.0000 weight percent
Particle Size Distribution ([2]; Size <1.9 μm, listed as Milled): 7.9543 weight percent
Particle Size Distribution ([2]; Size >298 μm, listed as Milled): 0.0000 weight percent
mean particle size ([2]; listed as Milled): 19.1 μm
median particle size ([2]; listed as Milled): 10.3 μm
Summary Particle Size Distribution, Cumul. ([2]; up to Sieve Size 2.3-3.9 μm, listed as Milled): 26.99 wt %
Summary Particle Size Distribution, Cumul. ([2]; up to Sieve Size 4.6-16 μm, listed as Milled): 68.92 wt %
Summary Particle Size Distribution, Cumul. ([2]; up to Sieve Size 19-37 μm, listed as Milled): 89.07 wt %
Summary Particle Size Distribution, Cumul. ([2]; up to Sieve Size 44-88 μm, listed as Milled): 98.46 wt %
Summary Particle Size Distribution, Cumul. ([2]; up to Sieve Size 105-149 μm, listed as Milled): 99.85 wt %
Summary Particle Size Distribution, Cumul. ([2]; up to Sieve Size <1.9 μm, listed as Milled): 11.73 wt %
Summary Particle Size Distribution, Cumul. [2, 4]: ˜100* wt %
Crystal dimensions: length ([3]; listed as Milled): 40-90 μm
Crystal dimensions: width ([3]; listed as Milled): 20-25 μm
Aspect ratio ([3]; listed as Milled): 2-3.6
average crystal length [3]: less than 150 μm
average width [3]: less than 40 μm
GE Brightness [1]: 93.7
